# Patent US20130324412A1, “N-ALKOXYAMIDES OF 6-(SUBSTITUTED PHENYL)-4-AMINOPICOLINATES AND 2-(SUBSTITUTED PHENYL)-6-AMINO-4-PYRIMIDINECARBOXYLATES AND THEIR USE AS SELECTIVE HERBICIDES FOR CROPS” (DOW AGROSCIENCES LLC, priority 2009, published 2013)
# Columns and labels:
# Type in all cases: in vivo
# corn (Zea mays) = test: General postemergence herbicidal activity, corn; settings: post-emergence, 336 h, 70 g ai/ha, postemergence, after 14 d, 0 = no injury, 100 = complete kill, read-out: ZEAMX % Visual Injury
# How it was run: (§1)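 Greenhouse plants at first to second true leaf stage sprayed overhead at 187 L/ha in acetone/DMSO with crop oil concentrate and surfactant, at a high rate plus ½× to 1/16× serial dilutions. Injury rated visually after 14 d against solvent-blank controls, 0 (none) to 100% (complete kill).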
# [1] = tested on: velvetleaf (Abutilon theophrasti); test: General postemergence herbicidal activity, velvetleaf; settings: post-emergence, 336 h, 70 g ai/ha, postemergence, after 14 d, 0 = no injury, 100 = complete kill, read-out: ABUTH % Visual Injury
# How it was run: as §1
# [2] = tested on: lambsquarters (Chenopodium album); test: General postemergence herbicidal activity, lambsquarters; settings: post-emergence, 336 h, 70 g ai/ha, postemergence, after 14 d, 0 = no injury, 100 = complete kill, read-out: CHEAL % Visual Injury
# How it was run: as §1
# [3] = tested on: sicklepod (Casia obtusifolia); test: Postemergence herbicidal activity in corn, sicklepod; settings: corn test, visual rating after 21 d, probit analysis, dose to kill or control 80 percent
# Protocol: (§2) Seeds of corn and the desired weed species were planted in Sun Gro MetroMix 360 planting mixture, which typically has a pH of 6.0 to 6.8 and an organic matter content of about 30 percent, in plastic pots with a surface area of 95 cm^2. When required to ensure good germination and healthy plants, a fungicide treatment and/or other chemical or physical treatment was applied. The plants were grown for 7-21 d in a greenhouse with an approximate 15-h photoperiod which was maintained at about 23-29° C. during the day and 22-28° C. during the night. Nutrients and water were added on a regular basis and supplemental lighting was provided with overhead metal halide 1000-Watt lamps as necessary. The corn plants were utilized for testing when they reached the second true leaf stage. The weed species were utilized at the first or second true leaf stage.
# (§3) A weighed amount, determined by the highest rate to be tested, of each test compound was dissolved in 4 mL of a 97:3 v/v mixture of acetone and DMSO to obtain concentrated stock solutions. […] The concentrated stock solutions obtained were diluted with 20 mL of an aqueous mixture containing acetone, water, isopropyl alcohol, DMSO, Atplus 411F crop oil concentrate, and Triton X-155 surfactant in a 48.5:39:10:1.5:1.0:0.02 v/v ratio to obtain spray solutions containing the highest application rates. […]
# (§4) The treated plants and control plants were placed in a greenhouse as described above and watered by sub-irrigation to prevent wash-off of the test compounds. After 21 d, the condition of the test plants as compared with that of the untreated plants was determined visually and scored on a scale of 0 to 100 percent where 0 corresponds to no injury and 100 corresponds to complete kill. […]
# [4] = tested on: pigweed, redroot (Amaranthus retroflexus); test: Postemergence herbicidal activity in corn, redroot pigweed; settings: corn test, visual rating after 21 d, probit analysis, dose to kill or control 80 percent
# Protocol: as §2, §3, §4
SMILES,plant injury at 70 g/ha (corn (Zea mays)) [%],pest or weed control at 70 g/ha [1] [%],pest or weed control at 70 g/ha [2] [%],CASOB GR80 [3] [g ai/ha],AMARE GR80 [4] [g ai/ha]
"COc1c(Cl)ccc(-c2cc(N)c(Cl)c(C(=O)NOCC(C)C)n2)c1F [Compound 1, 4-amino-3-chloro-6-(4-chloro-2-fluoro-3-methoxyphenyl)-N-(2-methylpropoxy)picolinamide]",0,100,100,8.75,14
"CONC(=O)c1nc(-c2ccc(Cl)c(OC)c2F)cc(N)c1Cl [Compound 2, 4-Amino-3-chloro-6-(4-chloro-2-fluoro-3-methoxyphenyl)-N-methoxypicolinamide]",10,100,100,17,<4
